Patent US7994140B2, “Classes of compounds that interact with GPCRs” (Alchemia Limited, priority 2002, dated 2011)

Legend:
SST5 = biological target: T1, SST5 (Homo sapiens, UniProt P35346); test: GPCR radioligand binding (RLB) assay, somatostatin SST5, [125I]SST-14; conditions: 10 micromolar compound; recombinant human receptor membranes (HEK 293)
T1 construct: purchased Perkin Elmer BioSignal; host or cells: HEK 293
Outline: (§1)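 Membranes from HEK 293 cells expressing the recombinant human receptor were equilibrated with [125I]SST-14 (SST5) or [125I]NDP-αMSH (MC4), then compound added for an optimized incubation. Bound ligand separated by filtration on PEI-coated glass fiber and counted by liquid scintillation.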

MC4 = biological target: T2, MC4 (Homo sapiens, UniProt P32245); test: GPCR radioligand binding (RLB) assay, melanocortin MC4, [125I]NDP-αMSH; conditions: 10 micromolar compound; recombinant human receptor membranes (HEK 293)
T2 construct: purchased Perkin Elmer BioSignal; host or cells: HEK 293
Outline: as §1

T1 sequence (P35346 whole entry): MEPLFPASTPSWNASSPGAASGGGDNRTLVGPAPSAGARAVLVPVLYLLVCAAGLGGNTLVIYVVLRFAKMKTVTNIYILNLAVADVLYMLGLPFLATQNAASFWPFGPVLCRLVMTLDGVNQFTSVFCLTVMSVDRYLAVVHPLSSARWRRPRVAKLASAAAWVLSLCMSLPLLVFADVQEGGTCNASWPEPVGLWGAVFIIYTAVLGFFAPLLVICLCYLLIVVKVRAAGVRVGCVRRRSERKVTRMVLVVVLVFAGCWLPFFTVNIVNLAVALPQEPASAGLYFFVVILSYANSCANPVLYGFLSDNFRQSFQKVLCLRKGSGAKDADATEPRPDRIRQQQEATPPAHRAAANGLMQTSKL
T2 sequence (P32245 whole entry): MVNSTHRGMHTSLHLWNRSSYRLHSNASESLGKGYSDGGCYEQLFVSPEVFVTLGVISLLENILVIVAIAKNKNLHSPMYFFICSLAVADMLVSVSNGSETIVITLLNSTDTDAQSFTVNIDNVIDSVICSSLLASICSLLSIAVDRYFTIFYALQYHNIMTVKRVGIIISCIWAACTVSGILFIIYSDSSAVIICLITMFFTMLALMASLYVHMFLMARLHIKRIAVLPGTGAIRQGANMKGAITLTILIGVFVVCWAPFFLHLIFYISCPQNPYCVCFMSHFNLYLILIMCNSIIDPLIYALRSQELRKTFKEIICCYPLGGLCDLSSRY

SMILES | SST5 inhibition at 10 micromolar (SST5) | MC4 inhibition at 10 micromolar (MC4)
CSC1OC(COCc2ccccc2)C(O)C(OCc2ccc(-c3ccccc3)cc2)C1NC(=O)CCNC(=N)N (centres unmarked) [Compound 170] | + (Indicates inhibition greater than . . . 50%) | + (Indicates inhibition greater than . . . 50%)
CSC1OC(COCc2ccccc2)C(O)C(OCc2ccc(-c3ccccc3)cc2)C1NC(=O)CCCN (centres unmarked) [Compound 171] | + (Indicates inhibition greater than . . . 50%) | + (Indicates inhibition greater than . . . 50%)
CSC1OC(COCc2ccccc2)C(O)C(OCc2ccc(-c3ccccc3)cc2)C1NC(=O)CCCNC(=N)N (centres unmarked) [Compound 172] | + (Indicates inhibition greater than . . . 50%) | + (Indicates inhibition greater than . . . 50%)
CSC1OC(COCc2ccc(Cl)cc2)C(O)C(OCc2ccc(-c3ccccc3)cc2)C1NC(=O)CN (centres unmarked) [Compound 173] | + (Indicates inhibition greater than . . . 50%) | + (Indicates inhibition greater than . . . 50%)
CSC1OC(COCc2ccc(Cl)cc2)C(O)C(OCc2ccc(-c3ccccc3)cc2)C1NC(=O)CNC(=N)N (centres unmarked) [Compound 174] | + (Indicates inhibition greater than . . . 50%) | + (Indicates inhibition greater than . . . 50%)
CSC1OC(COCc2ccc(Cl)cc2)C(O)C(OCc2ccc(-c3ccccc3)cc2)C1NC(=O)CCN (centres unmarked) [Compound 175] | + (Indicates inhibition greater than . . . 50%) | + (Indicates inhibition greater than . . . 50%)
CSC1OC(COCc2ccc(Cl)cc2)C(O)C(OCc2ccc(-c3ccccc3)cc2)C1NC(=O)CCNC(=N)N (centres unmarked) [Compound 176] | + (Indicates inhibition greater than . . . 50%) | + (Indicates inhibition greater than . . . 50%)
CSC1OC(COCc2ccc(Cl)cc2)C(O)C(OCc2ccc(-c3ccccc3)cc2)C1NC(=O)CCCN (centres unmarked) [Compound 177] | + (Indicates inhibition greater than . . . 50%) | + (Indicates inhibition greater than . . . 50%)
CSC1OC(COCc2ccc(Cl)cc2)C(O)C(OCc2ccc(-c3ccccc3)cc2)C1NC(=O)CCCNC(=N)N (centres unmarked) [Compound 178] | + (Indicates inhibition greater than . . . 50%) | + (Indicates inhibition greater than . . . 50%)
CSC1OC(COCc2ccc(-c3ccccc3)cc2)C(O)C(OCc2ccc(-c3ccccc3)cc2)C1NC(=O)CN (centres unmarked) [Compound 179] | + (Indicates inhibition greater than . . . 50%) | + (Indicates inhibition greater than . . . 50%)
CSC1OC(COCc2ccc(-c3ccccc3)cc2)C(O)C(OCc2ccc(-c3ccccc3)cc2)C1NC(=O)CNC(=N)N (centres unmarked) [Compound 180] | + (Indicates inhibition greater than . . . 50%) | + (Indicates inhibition greater than . . . 50%)
CSC1OC(COCc2ccc(-c3ccccc3)cc2)C(O)C(OCc2ccc(-c3ccccc3)cc2)C1NC(=O)CCN (centres unmarked) [Compound 181] | + (Indicates inhibition greater than . . . 50%) | + (Indicates inhibition greater than . . . 50%)
CSC1OC(COCc2ccc(-c3ccccc3)cc2)C(O)C(OCc2ccc(-c3ccccc3)cc2)C1NC(=O)CCNC(=N)N (centres unmarked) [Compound 182] | + (Indicates inhibition greater than . . . 50%) | + (Indicates inhibition greater than . . . 50%)
CSC1OC(COCc2ccc(-c3ccccc3)cc2)C(O)C(OCc2ccc(-c3ccccc3)cc2)C1NC(=O)CCCN (centres unmarked) [Compound 183] | + (Indicates inhibition greater than . . . 50%) | + (Indicates inhibition greater than . . . 50%)
CSC1OC(COCc2ccc3ccccc3c2)C(O)C(OCc2ccc(-c3ccccc3)cc2)C1NC(=O)CNC(=N)N (centres unmarked) [Compound 186] | + (Indicates inhibition greater than . . . 50%) | + (Indicates inhibition greater than . . . 50%)
CSC1OC(COCc2ccc3ccccc3c2)C(O)C(OCc2ccc(-c3ccccc3)cc2)C1NC(=O)CCN (centres unmarked) [Compound 187] | + (Indicates inhibition greater than . . . 50%) | + (Indicates inhibition greater than . . . 50%)
CSC1OC(COCc2ccc3ccccc3c2)C(O)C(OCc2ccc(-c3ccccc3)cc2)C1NC(=O)CCNC(=N)N (centres unmarked) [Compound 188] | + (Indicates inhibition greater than . . . 50%) | + (Indicates inhibition greater than . . . 50%)
CSC1OC(COCc2ccc3ccccc3c2)C(O)C(OCc2ccc(-c3ccccc3)cc2)C1NC(=O)CCCN (centres unmarked) [Compound 189] | + (Indicates inhibition greater than . . . 50%) | + (Indicates inhibition greater than . . . 50%)
CSC1OC(COCc2ccc3ccccc3c2)C(O)C(OCc2ccc(-c3ccccc3)cc2)C1NC(=O)CCCNC(=N)N (centres unmarked) [Compound 190] | + (Indicates inhibition greater than . . . 50%) | + (Indicates inhibition greater than . . . 50%)

SMILES | SST5 inhibition at 10 micromolar (SST5) | MC4 inhibition at 10 micromolar (MC4)
CSC1OC(COCc2ccccc2)C(O)C(OCc2ccc3ccccc3c2)C1NC(=O)CN (centres unmarked) [Compound 191] | + (Indicates inhibition greater than . . . 50%) | + (Indicates inhibition greater than . . . 50%)
CSC1OC(COCc2ccccc2)C(O)C(OCc2ccc3ccccc3c2)C1NC(=O)CNC(=N)N (centres unmarked) [Compound 192] | + (Indicates inhibition greater than . . . 50%) | + (Indicates inhibition greater than . . . 50%)
CSC1OC(COCc2ccccc2)C(O)C(OCc2ccc3ccccc3c2)C1NC(=O)CCNC(=N)N (centres unmarked) [Compound 194] | + (Indicates inhibition greater than . . . 50%) | + (Indicates inhibition greater than . . . 50%)
CSC1OC(COCc2ccccc2)C(O)C(OCc2ccc3ccccc3c2)C1NC(=O)CCCN (centres unmarked) [Compound 195] | + (Indicates inhibition greater than . . . 50%) | + (Indicates inhibition greater than . . . 50%)
CSC1OC(COCc2ccccc2)C(O)C(OCc2ccc3ccccc3c2)C1NC(=O)CCCNC(=N)N (centres unmarked) [Compound 196] | + (Indicates inhibition greater than . . . 50%) | + (Indicates inhibition greater than . . . 50%)
CSC1OC(COCc2ccc(Cl)cc2)C(O)C(OCc2ccc3ccccc3c2)C1NC(=O)CN (centres unmarked) [Compound 197] | + (Indicates inhibition greater than . . . 50%) | + (Indicates inhibition greater than . . . 50%)
CSC1OC(COCc2ccc(Cl)cc2)C(O)C(OCc2ccc3ccccc3c2)C1NC(=O)CNC(=N)N (centres unmarked) [Compound 198] | + (Indicates inhibition greater than . . . 50%) | + (Indicates inhibition greater than . . . 50%)
CSC1OC(COCc2ccc(Cl)cc2)C(O)C(OCc2ccc3ccccc3c2)C1NC(=O)CCN (centres unmarked) [Compound 199] | + (Indicates inhibition greater than . . . 50%) | + (Indicates inhibition greater than . . . 50%)
CSC1OC(COCc2ccc(Cl)cc2)C(O)C(OCc2ccc3ccccc3c2)C1NC(=O)CCNC(=N)N (centres unmarked) [Compound 200] | + (Indicates inhibition greater than . . . 50%) | + (Indicates inhibition greater than . . . 50%)
CSC1OC(COCc2ccc(Cl)cc2)C(O)C(OCc2ccc3ccccc3c2)C1NC(=O)CCCN (centres unmarked) [Compound 201] | + (Indicates inhibition greater than . . . 50%) | + (Indicates inhibition greater than . . . 50%)
CSC1OC(COCc2ccc(Cl)cc2)C(O)C(OCc2ccc3ccccc3c2)C1NC(=O)CCCNC(=N)N (centres unmarked) [Compound 202] | + (Indicates inhibition greater than . . . 50%) | + (Indicates inhibition greater than . . . 50%)
CSC1OC(COCc2ccc(-c3ccccc3)cc2)C(O)C(OCc2ccc3ccccc3c2)C1NC(=O)CN (centres unmarked) [Compound 203] | + (Indicates inhibition greater than . . . 50%) | + (Indicates inhibition greater than . . . 50%)
CSC1OC(COCc2ccc(-c3ccccc3)cc2)C(O)C(OCc2ccc3ccccc3c2)C1NC(=O)CNC(=N)N (centres unmarked) [Compound 204] | + (Indicates inhibition greater than . . . 50%) | + (Indicates inhibition greater than . . . 50%)
CSC1OC(COCc2ccc(-c3ccccc3)cc2)C(O)C(OCc2ccc3ccccc3c2)C1NC(=O)CCN (centres unmarked) [Compound 205] | + (Indicates inhibition greater than . . . 50%) | + (Indicates inhibition greater than . . . 50%)
CSC1OC(COCc2ccc(-c3ccccc3)cc2)C(O)C(OCc2ccc3ccccc3c2)C1NC(=O)CCNC(=N)N (centres unmarked) [Compound 206] | + (Indicates inhibition greater than . . . 50%) | + (Indicates inhibition greater than . . . 50%)
CSC1OC(COCc2ccc(-c3ccccc3)cc2)C(O)C(OCc2ccc3ccccc3c2)C1NC(=O)CCCN (centres unmarked) [Compound 207] | + (Indicates inhibition greater than . . . 50%) | + (Indicates inhibition greater than . . . 50%)
CSC1OC(COCc2ccc(-c3ccccc3)cc2)C(O)C(OCc2ccc3ccccc3c2)C1NC(=O)CCCNC(=N)N (centres unmarked) [Compound 208] | + (Indicates inhibition greater than . . . 50%) | + (Indicates inhibition greater than . . . 50%)
CSC1OC(COCc2ccc3ccccc3c2)C(O)C(OCc2ccc3ccccc3c2)C1NC(=O)CN (centres unmarked) [Compound 209] | + (Indicates inhibition greater than . . . 50%) | + (Indicates inhibition greater than . . . 50%)
